# Laboratory results: paper PMC11069587, “An Elastin-like Polypeptide-fusion peptide targeting capsid-tegument interface as an antiviral against cytomegalovirus infection” (Scientific Reports, 2024)
# Where no end group is shown, it is not given here.
# Experiments:
# uninfected MEFs = test: Cell viability of uninfected MEFs, trypan blue exclusion; conditions: 80 μM, mock-infected, 3 days
# Protocol: Cells were harvested at 3 dpi, and cell viability was assessed by trypan blue exclusion assay for both uninfected and infected groups. The standard error of the mean from three different experiments were plotted as error bars.
# MEFs were plated in 24-well tissue-culture plates and grown to confluency in triplicates. […] At 3 dpi, the CMC (carboxymethylcellulose) + DMEM overlay was removed. The cells were then harvested by trypsinization to determine the cell viability using trypan blue exclusion with a TC20 automated cell counter (BioRad Laboratories, Hercules, CA, USA) following the manufacturer’s protocol. […] The cells were washed twice with PBS and overlayed with CMC + DMEM and incubated for 3 days. […] The percentage of cell survival was plotted for different treatment groups, and data were analyzed by one-way ANOVA using Tukey post hoc test.
# HIV = tested on: HIV; design: method as in PMID 8312047; conditions: cited from earlier work
# Hepatitis B and D = tested on: Hepatitis B and D; design: method as in PMID 20007265; conditions: cited from earlier work
# [1] = Plasma pharmacokinetics of rhodamine-labeled constructs in mice; assay type: in vivo, mouse (Balb/c)
# Protocol: (§1) Plasma pharmacokinetics (a) were determined for 72 h after injection. In a separate cohort of mice (females, n = 4 per group), major organ biodistribution was determined 4 h after injection by ex vivo whole-organ fluorescence imaging (b and c). The standard deviations were plotted as error bars.
# (§2) Blood samples were collected from the tail vein at different time points and centrifuged to collect plasma. […] For the biodistribution, a separate cohort of mice (female, n = 4 per group) were euthanized four hours after the injection with proteins or saline control, and the brain, spleen, liver, lungs, kidneys, and heart were harvested and assessed by ex-vivo whole organ imaging using the In Vivo Imaging System (IVIS, Perkin Elmer). […] To determine pharmacokinetic parameters, plasma concentrations during the clearance phase (from the peak of the plasma concentration curve) were fit using a two-compartment pharmacokinetic model as described previously using GraphPad Prism[32].
# [2] = Organ biodistribution by ex vivo whole-organ fluorescence imaging in mice; design: species or system mouse (Balb/c); conditions: rhodamine-labeled, subcutaneous, 4 h post-injection, ex vivo IVIS imaging, female mice n = 4
# Protocol: as §1, §2
compound,measurement,setting,value
"Nc1nc(O)c2ncn(COC(CO)CO)c2n1 [GCV, ganciclovir]",cell viability of uninfected MEFs,uninfected MEFs,not affected
Enfuvirtide,IC50,HIV,nanomolar range
Myrcludex B,concentrations at which efficacy was demonstrated,Hepatitis B and D,picomolar concentrations
NKLVYTGRL [P10],Area Under Curve,"[1]; 500 nmol/Kg subcutaneous, female mice n = 4 per group, plasma fluorescence over 72 h",1185 ± 383 µM·h
same,time after which clearance from plasma began,"[1]; subcutaneous, mouse plasma",2 h
same,accumulation in the kidneys,[2],much lower levels than ELP-P10
same,accumulation in the liver,[2],much lower levels than ELP-P10
